Reference: a melting point compilation (Tetko et al.; mined from patent text by program, amines drawn as free bases though some values may be those of a salt)

melting point [°C]	Compound
288 to 290	Cc1[nH]c(C(=O)N2CCC(O)CC2)c(C)c1-c1nc2ccc(C(=O)c3ccccc3)cc2[nH]1
215 to 216	CC(=O)Nc1ccc(Oc2c(-c3ccc(S(C)(=O)=O)cc3)cnn(CC(F)(F)F)c2=O)cc1
249	CC(C)n1cc(-c2nc(C(N)=O)c(N)nc2-c2cc(F)cc(F)c2)ccc1=O
> 275	CS(=O)(=O)c1ccc(-c2cc(-c3nc4ccccc4c(=O)n3-c3ccccc3Cl)sc2N2CCOCC2)cc1
133 to 134	COc1cc(C=CC(=O)Nc2c(CCO)nc3c(C)cc(C)cc3c2-c2ccccc2Cl)ccc1O
64 to 66	COc1ccc(OC)c(SCCCCC#N)c1
34	CCOC(=O)CC(=O)c1ccc(Br)cc1Cl
131 to 133	COCc1ccsc1-c1nsc2ccc(-n3c(=O)cc(C(F)(F)F)n(C)c3=O)cc12
275 to 277	COc1ccc(-n2nc3c4c([nH]cc-3c2=O)CCCCCC4)cc1
131 to 134	O=C1N(Cc2cccc(C(F)(F)F)c2)c2ccccc2C12COc1cc3c(cc12)OCCO3 (stereo not drawn)
86 to 87	CCc1cccc(N=C(C)Nc2cccc(CC)c2)c1
240	N#Cc1cc(NC(=O)c2ccn(-c3ccc(F)cc3)c2)ccc1N1CCN(C2CCOCC2)CC1
164 to 168	Cc1c(Cl)ccc(S(C)(=O)=O)c1C=NO
145 to 151	O=C(NCCCCCCCCc1ccccc1)c1cc(-c2cccc(C(F)(F)F)c2)cc(-c2cccc(C(F)(F)F)c2OCCCCc2nnn[nH]2)c1
91 to 94	COC(=O)Cc1nc(N)cc(OC)n1
162 to 164	COc1ccc(-c2nc3ccc(OC)cc3s2)cc1
216 to 218	CC(=O)Nc1nc(CCc2ccc(NC(=N)NN)cc2)cs1
118 to 120	CCCCn1cc(C(=O)OCC)c(NC(=O)Nc2ccccc2)n1
78 to 80	O=C(O)CC1=C(Cc2ccc3ccccc3c2)C(=O)CCC1
183	O=C(O)/C=C/c1ccc(OCCN2CCCC2)cc1
199 to 200	COC(=O)c1ccc2nc3c(c(C)nn3-c3ccccn3)c(Cl)c2c1
129	C#CCOC(=O)C1=C(C)NC(C)=C(C(=O)OCC)C1c1ccccc1C (stereo not drawn)

melting point [°C]	Compound
180	CCSc1cc(SCC)c2ccc3c(SCC)cc(SCC)c4ccc1c2c43
102 to 103	CC(C)CCCC(C)C1CCC2C3CC=C4CCCC(O)C4(C)C3CCC12C (stereo not drawn)
> 250	c1ccc(-c2cnc(Nc3ccncn3)s2)cc1
74	Nc1cc(Cl)cnc1F
154 to 156	C#CCOc1ccc2c(C)cc(=O)oc2c1C(=O)C=Cc1cccc(OC)c1
209 to 210	CC(=O)c1cccc(-c2c(C)c(NC(=O)CC(C)(C)C)c(C)c3c2OCC3c2ccc(C(C)C)cc2)c1 (stereo not drawn)
109 to 110	Nc1c(OCCCl)cc(Cl)cc1[N+](=O)[O-]
114 to 115	CC1OC(=O)C2C1C1CCC2(OC(=O)C(C)(C)C)O1 (stereo not drawn)
112 to 114	O=C1Nc2ccccc2C1CCCCN1CCN(c2ccc(Cl)c(Cl)c2)CC1 (stereo not drawn)
74 to 75	CCCCCCN1N=C(c2ccc(OC)c(OC)c2)C2CC=CCC2C1=O (stereo not drawn)
81 to 82	COC(=O)C(C)(C)Sc1cccc(OCc2ccc(-c3ccc([N+](=O)[O-])cc3)o2)c1
177 to 179	Cn1c(C(F)(F)F)cc(=O)n(-c2cc(Oc3ncccc3[N+](=O)[O-])c(Cl)cc2F)c1=O
203 to 205	CS(=O)(=O)c1ccc(-n2nc(C(F)(F)F)cc2-c2ccc([N+](=O)[O-])cc2)cc1
196	CCCCc1nc2ccccn2c1Cc1ccc(-c2ccccc2C(=O)O)cc1
190 to 192	COC(=O)c1nn(-c2ccccc2)c2c1CCc1cc(Cl)ccc1-2
332	COc1ccc2c(c1)[nH]c(=O)c(=O)n2C
137 to 138	O=S(=O)(NCCCCCOc1ccc(-n2ccnc2)cc1)c1ccc(Br)cc1
147 to 149	COC(=O)CC(=O)CC(O)/C=C/c1c(-c2ccc(F)cc2)n(C(C)C)c(=O)c2ccccc12 (stereo not drawn)
296 to 298	COc1cc2[nH]c3nc[nH]c(=O)c3c2cc1OC
126 to 130	O=c1c2c(Cl)cc(Cl)cc2n(Cc2ccccc2)c(=O)n1Cc1ccccc1F
142	O[C@H]1COC(c2ccc(Cl)cc2)=N[C@@H]1c1ccccc1 (racemic)
154 to 155	C(=Cc1cccc2ccccc12)c1ccc(-c2cc3ccccc3o2)cc1

melting point [°C]	Compound
195 to 198	COc1cc(OC)nc(Oc2ccc3ncccc3c2C(=O)O)n1
167	Cc1c(CO)nc2n1CCc1ccccc1C2=C1CCN(C)CC1
215 to 217	CCOC(=O)c1cn(CCO)c2nc(N3CCN(C(=O)OCC)CC3)c(F)cc2c1=O
258 to 260	CC(C)(c1ccc(Oc2cccc3c2C(=O)NC3=O)cc1)c1ccc(Oc2cccc3c2C(=O)NC3=O)cc1
76 to 78	N#Cc1cc(Oc2ccc(Cl)c(Cl)c2)cnc1Cl
59 to 60	CCCCCCCCCCCCOc1ccc(C(=O)c2ccc(Sc3ccccc3)cc2)c(O)c1
207 to 209	Cc1ccc(S(=O)(=O)NC(=O)C(c2cc3c(cc2Cl)OCO3)c2cn(C)c3cc(CO)ccc23)cc1 (stereo not drawn)
182 to 184	Cc1nc(-c2ccccc2)sc1CNC(=O)c1ccnc(N2CCN(Cc3ccc(F)cc3)C2=O)c1
105 to 110	OCc1cc(I)ccc1O
217 to 218	CCn1cc(C(=O)c2ccccc2)c(=O)c2cn(C)nc21
247 to 249	Nc1cccc(CNC(=O)c2[nH]c3ccc(Cl)cc3c2S(=O)(=O)c2ccccc2)c1
100 to 101	CN1CC(Oc2ccc(Nc3cc(Br)cn(C)c3=O)nc2)C1
222	COc1ccc(-n2c(CC(=O)O)c(C(=O)O)c3cc(Oc4ccc(S(C)(=O)=O)cc4)ccc32)cc1
155 to 159	O=C(c1ccncc1)[N+]1([O-])CCC(=C2c3ccccc3CCn3ccnc32)CC1 (stereo not drawn)
109	Cc1nc(-c2ccccc2F)cn1-c1ccc(COc2ncc(C(F)(F)F)cc2Cl)cc1
204 to 206	CC1(C)CC(=O)c2c(NCc3ccccc3)sc(-c3cc[nH]n3)c2C1
190	CC(C)(C)OC(=O)N1C[C@H]2[C@@H](C1)C(c1ccccc1)(c1ccccc1)CC[C@@H]2O
86 to 88	CC(=O)OCCn1cc(-c2ccccc2)[nH]c1=O
141 to 142	O=C(O)CCCCn1ccc2cc([N+](=O)[O-])ccc21
150 to 151	CC1CCC(C(C)C)C(c2ccc3c(c2)C(c2ccccc2)(C(F)(F)F)c2cc(C4CC(C)CCC4C(C)C)ccc2O3)C1 (stereo not drawn)
108 to 109	CC(=O)Nc1ccc2c(c1)OCCCO2

Compound	melting point [°C]
CC(=O)Nc1ccc2c(c1)CC(CN1CCC(c3c[nH]c4cc(Cl)ccc34)CC1)C2 (stereo not drawn)	151 to 152
CN1CC(CO)CC2(OCCO)c3cccc4[nH]cc(c34)CC12 (stereo not drawn)	178 to 180
C[C@H]1N=C(c2ccccc2F)c2cc([N+](=O)[O-])ccc2NC1=O	120
